Article PMC6776562, “Inhibition of Rac1-dependent forgetting alleviates memory deficits in animal models of Alzheimer’s disease” (Protein & Cell, 2019)

How the values were obtained:
RhoA = RhoA activity (RhoA-GTP) by Western blot after drug administration; assay type: in vivo; settings: 7-month-old APP/PS1 mice; two weeks of P.O administration
Method: (§1) The hippocampal tissues from human subjects and mice were harvested and stored in a liquid nitrogen tank for biochemical assay. The tissues were homogenized in cold lysis buffer (Merck-Millipore, 20-168). The insoluble debris were removed after centrifugation at 13,000 rpm (for 10 min, at 4 °C). For GTP-bound Rac/Cdc42, lysates were incubated with GST-tagged PAK (p21-activated kinase)-PBD agarose beads (Cytoskeleton, PAK02) overnight at 4 °C. On the second day, the beads were washed three times with lysis buffer before subjecting them to SDS-PAGE (15%) and transferring them onto nitrocellulose membranes (Millipore, HATF00010). The membranes were incubated with primary antibodies (for Rac1: BD Transduction Laboratories, #610650, 1:2,000 dilution; for Cdc42, Santa Cruz Biotechnology, lot No. sc-8401, 1:500 dilution) overnight at 4 °C and with HRP-conjugated goat anti-mouse IgG (Cell Signaling Technology, #7076) for 1 h at room temperature. Intensities of the detected bands were analyzed using ImageJ software (National Institutes of Health). The total amount of Rac1 in the lysate was detected using a routine Western blot procedure. RhoA-GTP levels were measured by using the Rho-GTP monoclonal antibody (New East, lot No. 26904, Dilution: 1:1,000). […] Data information: All values are expressed as mean r SEM.

Cdc42 = Cdc42 activity (Cdc42-GTP) by Western blot after drug administration; assay type: in vivo; settings: 7-month-old APP/PS1 mice; two weeks of P.O administration
Method: as §1

SMILES	RhoA activity (RhoA)	Cdc42 activity (Cdc42)
O=S(=O)(c1ccccc1)N1CCN(Cc2ccccc2)CC1 [JKF-034]	did not affect	did not affect
O=C1NN(c2ccc(Cl)c(Cl)c2)C(=O)C1=Cc1ccc(O)c(N(O)O)c1 [CS7171]	did not affect	did not affect
